Data from patent US20030073683A1, “Administration of noncompetitive AMPA receptor antagonist for neuroprotection after traumatic brain injury” (priority 2001, published 2003).
Like-named read-outs stand apart in the source and are kept apart here.

Assays:
[1] = tested on: global cerebral ischemia in rats; conditions: cited from earlier work
[2] = tested on: fluid-percussion brain injury; assay: Fluid-percussion brain injury in rats: normal pyramidal neuron counts in hippocampus; assay type: in vivo, rat
Source text: (§1) Rat Model. Fasted male Sprague-Dawley rats, weighing 290-390 g were employed. The animals were initially anesthetized with 3% halothane, 70% nitrous oxide, and a balance of oxygen. Rats were positioned in a stereotaxic frame following endotracheal intubation. A 4.8-mm craniotomy was made overlying the right parietal cortex (3.8 mm posterior to bregma and 2.5 mm lateral to midline) as previously described by Belayev et al., J. Neurotrauma, 16: 445-453 (1999) and Dietrich et al., J. Neuropathol. (Beri.) 87: 250-258 (1994). Next, a plastic injury tube was positioned over the exposed dura matter. Dental acrylic was then used to bond the injury tube to surrounding structures. After the acrylic had hardened, the injury tube was plugged with a Gelfoam sponge, the scalp closed with sutures, and the animal was returned to its cage and allowed to recover overnight.
(§2) Fluid-Percussion Brain Injury. The following day, the rats were reanesthetized with halothane, orotracheally intubated, and maintained on 70% nitrous oxide, 1.5% halothane, and a balance of oxygen. Temperature probes were inserted into the rectum (CMA/150 Temperature Controller, CMA/Microdialysis AB, Stockholm, Sweden) and the left temporalis muscle (Thermocouple Probe, Omega Engineering, Stanford, Conn.), and separate heating lamps were used to maintain rectal temperature and temporalis muscle temperature at 37.0-37.5° C. The right femoral artery and vein were catheterized for continuous blood pressure monitoring and periodic blood sampling for arterial gases, pH, hematocrit, and plasma glucose (measurements taken 15 min before TBI and 15 min after TBI). Rectal temperature and body weight was monitored before trauma and periodically for 7 days after trauma. Mean arterial blood pressure (MABP) was measured via an indwelling femoral arterial catheter connected to a precalibrated Statham pressure transducer (model P23XL, Viggo-Spectramed Inc., Oxnard, Calif., USA) and was recorded continuously (model RS3400 polygraph, Gould, Inc., Valley View, Ohio, USA). Serial measurements were made of arterial blood gases and pH (model ABL 330, Radiometer America, Inc. Westlake, Ohio, USA) and plasma glucose (model 2300 Stnt; Yellow Springs Instrument Co., Inc., Yellow Springs, Ohio, USA).
(§3) A fluid-percussion device was connected to the injury tube of the rat's skull. This device consisted of a saline-filled cylindrical Plexiglas reservoir having a rubber-coated piston at one end, a transducer housing to permit measurement of pressure transients, and a connecting device adapted to the rat's skull. Injury was induced by the descent of a pendulum, conveying a pressure transient of 1.5-2.0 atm. to the right dorsolateral parietal cortex (see Dietrich et al., J. Neuropathol. (Beri.), 87: 250-258 (1994)). Sham-operated animals (n=9) underwent similar surgical procedures but were not injured.
(§4) Drug-Infusion System. The femoral-vein cannula was tunneled subcutaneously so as to exit from the dorsal neck and was connected to a swivel device (Stoelting Co., Wood Dale, Ill., USA) attached to the roof of a spacious cage. This device allowed bi-directional rotation. PE-50 tubing extending from the other end of the device was joined to a disposable syringe attached to an infusion pump (KDS-100, KD Scientific, Boston, Mass., USA). This tethering system allowed the rats free movement without interfering with the patency of the cannula during drug administration.
(§5) Drug Administration. Talampanel (Lilly Research Laboratories, Indianapolis, Ind., USA; bolus infusion of 4 mg/kg followed by infusion of 4 mg/kg/h over 72 hr) or vehicle (40% 2-hydroxylpropyl-β-cyclodextrin solution, 0.3-ml bolus plus 0.3 ml/kg/hr over 72 hr) was administered I.V. beginning 30 min or 3 hr after trauma or sham operation.
Histopathology of Hippocampus. […]

flexor reflexes in cats = conditions: in vivo; cited from earlier work
Sprague-Dawley rats = conditions: rat, in vivo
Source text: Fluid-Percussion Brain Injury. The following day, the rats were reanesthetized with halothane, orotracheally intubated, and maintained on 70% nitrous oxide, 1.5% halothane, and a balance of oxygen. Temperature probes were inserted into the rectum (CMA/150 Temperature Controller, CMA/Microdialysis AB, Stockholm, Sweden) and the left temporalis muscle (Thermocouple Probe, Omega Engineering, Stanford, Conn.), and separate heating lamps were used to maintain rectal temperature and temporalis muscle temperature at 37.0-37.5° C. The right femoral artery and vein were catheterized for continuous blood pressure monitoring and periodic blood sampling for arterial gases, pH, hematocrit, and plasma glucose (measurements taken 15 min before TBI and 15 min after TBI). Rectal temperature and body weight was monitored before trauma and periodically for 7 days after trauma. Mean arterial blood pressure (MABP) was measured via an indwelling femoral arterial catheter connected to a precalibrated Statham pressure transducer (model P23XL, Viggo-Spectramed Inc., Oxnard, Calif., USA) and was recorded continuously (model RS3400 polygraph, Gould, Inc., Valley View, Ohio, USA). Serial measurements were made of arterial blood gases and pH (model ABL 330, Radiometer America, Inc. Westlake, Ohio, USA) and plasma glucose (model 2300 Stnt; Yellow Springs Instrument Co., Inc., Yellow Springs, Ohio, USA). […]

[3] = tested on: severe epilepsy not responsive to other drugs; conditions: patients with severe epilepsy not responsive to other drugs; cited from earlier work
[4] = tested on: phenytoin-resistant status epilepticus; conditions: in vivo; cited from earlier work
[5] = tested on: global ischemia in gerbils; conditions: 2.5-5 mg/kg, cited from earlier work
kindled seizures = conditions: cited from earlier work
[6] = tested on: conscious male Sprague-Dawley rats; assay: Cardiovascular effects in conscious rats; assay type: in vivo, rat; conditions: single oral doses of 0.1, 0.3, 3 or 10 mg/kg; 2 hr
Description: Talampanel was examined for potential cardiovascular effects in conscious male Sprague-Dawley rats for 2 hr, following single oral doses of 0.1, 0.3, 3 or 10 mg/kg. The cardiovascular variables measured included systolic, diastolic and mean arterial pressure, arterial pulse pressure, and heart rate. […] Thus, taken together, these in vitro and in vivo studies makes AMPA antagonists and specifically talampanel attractive candidates for a number of therapeutic indications (data not shown).

rats = assay: Preliminary experiment with continuous infusion in rats (clinical signs); assay type: in vivo, rat; conditions: doses of 8 and 10 mg/kg (5, 8 or 10 mg/kg tested)
Description: The dosage was chosen because talampanel has been studied in vivo in a gerbil model of global ischemia (Lodge et al., Neuropharmacology, 35: 1681-1688 (1996)). […] Therefore, the dose was reduced to about 5 mg/kg.

[7] = tested on: fluid-percussion brain injury; assay: Fluid-percussion brain injury in rats: histopathological contusion areas; assay type: in vivo, rat; conditions: for reduction of mean contusion area vs vehicle-treated rats: 4 mg/kg bolus + 4 mg/kg/h over 72 hr I.V.
Source text: as §1, §2, §3, §4, §5
Histopathological Analysis of Brain Trauma. Animals were allowed to survive for 7 days following fluid-percussion brain injury. […]

[8] = treatment begun at 3 hr after trauma

CC1=NN=C(c2ccc(N)cc2)c2cc3c(cc2C1)OCO3 [GYKI 52466, 1-(4-aminophenyl)-4-methyl-7,8-methylene-dioxy-5H-2,3-benzodiazepine]
neuronal damage in the CA1 sector of the hippocampus ([1]; drug pretreatment but not posttreatment): significantly attenuated | striatal neuronal damage ([1]; pretreatment or posttreatment): not affected by either drug treatment | functional deficits (learned maze responses) ([1]; pretreatment vs posttreatment): pretreatment but not posttreatment reduced functional deficits

CC(=O)N1N=C(c2ccc(N)cc2)c2cc3c(cc2C[C@H]1C)OCO3 [talampanel, (R)-7-acetyl-5-(4-aminophenyl)-8,9-dihydro-8-methyl-7H-1,3-dioxolo [4,5-h][2,3]benzodiazepine]
numbers of normal neurons in CA1 and CA3 sectors of sham animals ([2]; sham animals, vehicle or talampanel (30 min or 3 hr)): identical in all groups | survival of pyramidal neurons in the CA1 sector of hippocampus ([2]; treatment 30 min after trauma): increased survival | numbers of normal neurons in CA3 sector, statistical comparison with vehicle ([2]; treatment at 30 min): did not differ statistically between groups | normal pyramidal-neuron counts CA1 vs vehicle ([2]; treatment begun at 3 hr): almost identical in both groups | normal pyramidal-neuron counts in the hippocampal CA3 sector vs vehicle ([2]; treatment begun at 3 hr): did not differ between groups | ischemic damage in all three subsectors of the hippocampal CA1 sector vs vehicle ([2]; treatment starting at 30 min): significantly attenuated ischemic damage | flexor reflexes (flexor reflexes in cats): inhibited flexor reflexes | mortality (Sprague-Dawley rats): None of the animals died | rectal and cranial temperatures, arterial blood gases, plasma glucose, arterial blood pressure, body weight (Sprague-Dawley rats): no significant differences between groups | clinical outcome in patients [3]: positive results | seizures in status epilepticus [4]: arrested seizures in a dose-related manner | survival of hippocampal CA1 neurons / neuroprotection after global ischemia [5]: significantly neuroprotective | survival of hippocampal CA1 neurons / neuroprotection after global ischemia ([5]; listed as Talampanel): led to survival of hippocampal CA1 neurons | chemically kindled seizures (kindled seizures; 12.5 mg/kg): suppressed chemically kindled seizures | electrically kindled seizures (kindled seizures; 20 mg/kg): suppressed | systolic, diastolic and mean arterial pressure, arterial pulse pressure, heart rate [6]: No changes were observed | clinical signs (rats): clinical signs of ataxia | reduction of mean contusion area vs vehicle-treated rats ([7]; bregma level −5.8 mm, treatment 30 min after trauma, 7 days after trauma): 85% | reduction of mean contusion area vs vehicle-treated rats ([7]; bregma level −6.8 mm, treatment 30 min after trauma, 7 days after trauma): 97% | reduction of total contusion area vs vehicle-treated rats ([7]; treatment 30 min after trauma, 7 days after trauma): 70% | overall contusion volume ([7]; treatment 30 min after trauma, moderate fluid-percussion brain injury): significant reduction | contusion foci in brain sections (photomicrographs) ([7]; treatment 30 min after trauma, vs vehicle-treated rats): smaller contusion foci, typically confined to the deeper cortical layers | neuroprotective effect ([7]; treatment begun at 3 hr): lost | contusion area at bregma levels vs vehicle-treated rats [7, 8]: reduced only at one bregma level (−6.8 mm) | total contusion area, statistical comparison with vehicle-treated rats [7, 8]: did not differ statistically
